Structures are written as SMILES. ± gives the standard deviation of the averaged measurements.

What all share (assay): activity (1 - area under the dose-response curve within the screened range) (fraction); higher = more sensitive
Holding throughout (settings): treatment time: 72 h

The test system of one assay is HCM-SANG-0266-C20 (colorectal cancer organoid). On the procedure: (§1)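 Patient-derived cancer organoids (colorectal and oesophageal, HCM-SANG models) were grown for up to 6 months in 5% or 80% ECM (BME-2), then seeded in 384-well plates on an ECM layer and treated with 72 compounds for 3 days. Each compound used a 7-point half-log dilution series spanning a 1000-fold range, in technical triplicate and biological duplicate. Dose-response curves were fitted with a non-linear mixed effects model; fits with RMSE > 0.3 were removed, and activity = 1 - AUC within the screened dose range (0 = no activity, 1 = maximum).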

The subject of the next assay is HCM-SANG-0270-C20 (colorectal cancer organoid). On the procedure: as §1
The subject of a further assay is HCM-SANG-0291-C15 (oesophageal cancer organoid). The procedure:
as §1

The subject of the next assay is HCM-SANG-0532-C20 (colorectal cancer organoid). The procedure: as §1
[1] abbreviates: ECM percentage in culture prior to screening 5 %.
Setting [2] is: ECM percentage in culture prior to screening 80 %.

Regarding `O=C(Nc1ccc2[nH]nc(-c3ccncc3)c2c1)[C@@H]1CCN(CC(=O)N2CCN(c3ccc(-c4ncccn4)cc3)CC2)C1`, the activity with HCM-SANG-0266-C20 (setting [1]) was found to be 0.388 ± 0.086; in the assay on HCM-SANG-0266-C20 (setting [2]), 0.155 ± 0.12; with HCM-SANG-0270-C20 (setting [1]) it was 0.159 ± 0.078; in the assay with HCM-SANG-0270-C20 (setting [2]) it was 0.0818 ± 0.065; with HCM-SANG-0291-C15 (setting [1]), 0.236 ± 0.027; in the assay with HCM-SANG-0291-C15 (setting [2]), 0.224 ± 0.055. Moreover, the values for the activity in the assay with HCM-SANG-0532-C20 (setting [1]) and in the assay with HCM-SANG-0532-C20 (setting [2]) were 0.201 ± 0.13 and 0.272 ± 0.056, respectively.
Regarding `COc1ccc(-c2ccc3c(N4CCOC[C@@H]4C)nc(N4CCOC[C@@H]4C)nc3n2)cc1CO` [AZD8055], the activity with HCM-SANG-0266-C20 (setting [1]) amounted to 0.298 ± 0.097; in the assay with HCM-SANG-0266-C20 (setting [2]) it was 0.251 ± 0.12; in the assay with HCM-SANG-0270-C20 (setting [1]), 0.117 ± 0.043; in the assay with HCM-SANG-0270-C20 (setting [2]) it was 0.0699 ± 0.062; in the assay on HCM-SANG-0291-C15 (setting [1]), 0.076 ± 0.03; in the assay with HCM-SANG-0291-C15 (setting [2]), 0.0634 ± 0.032. Also, the activity is 0.237 ± 0.076 in the assay on HCM-SANG-0532-C20 (setting [1]) and 0.301 ± 0.039 in the assay on HCM-SANG-0532-C20 (setting [2]).
In the case of `O=C(O)C1(C(=O)O)CCC1.[NH2-].[NH2-].[Pt+2]` [Carboplatin], the activity in the assay on HCM-SANG-0266-C20 (setting [1]) was found to be 0.0268 ± 0.0076; with HCM-SANG-0266-C20 (setting [2]), 0.0392 ± 0.024; in the assay on HCM-SANG-0270-C20 (setting [1]), 0.0338 ± 0.02; in the assay with HCM-SANG-0270-C20 (setting [2]), 0.0325 ± 0.013; with HCM-SANG-0291-C15 (setting [1]), 0.0362 ± 0.017; in the assay on HCM-SANG-0291-C15 (setting [2]), 0.0271 ± 0.011. Besides, the activity in the assay on HCM-SANG-0532-C20 (setting [1]) is 0.0573 ± 0.015; in the assay on HCM-SANG-0532-C20 (setting [2]) it was 0.0352 ± 0.013.
As for `CS(=O)(=O)N1CCN(Cc2cc3nc(-c4cccc5[nH]ncc45)nc(N4CCOCC4)c3s2)CC1` [Pictilisib], the activity in the assay on HCM-SANG-0266-C20 (setting [1]) was 0.198 ± 0.059; in the assay with HCM-SANG-0266-C20 (setting [2]), 0.152 ± 0.068; with HCM-SANG-0270-C20 (setting [1]), 0.0973 ± 0.037; in the assay on HCM-SANG-0270-C20 (setting [2]), 0.0554 ± 0.033; in the assay on HCM-SANG-0291-C15 (setting [1]), 0.0595 ± 0.032; in the assay on HCM-SANG-0291-C15 (setting [2]), 0.0514 ± 0.019. Further, the figures for the activity in the assay on HCM-SANG-0532-C20 (setting [1]) and in the assay with HCM-SANG-0532-C20 (setting [2]) were 0.12 ± 0.07 and 0.155 ± 0.039, respectively.
In the case of `O=c1cc(N2CCOCC2)oc2c(-c3cccc4c3sc3ccccc34)cccc12` [NU7441], the activity came to 0.104 ± 0.032 in the assay on HCM-SANG-0266-C20 (setting [1]); 0.063 ± 0.018 with HCM-SANG-0266-C20 (setting [2]); 0.0446 ± 0.03 with HCM-SANG-0270-C20 (setting [1]); 0.0686 ± 0.032 with HCM-SANG-0270-C20 (setting [2]); 0.0932 ± 0.037 with HCM-SANG-0291-C15 (setting [1]); 0.0809 ± 0.029 in the assay with HCM-SANG-0291-C15 (setting [2]). Besides, the activity in the assay on HCM-SANG-0532-C20 (setting [1]) amounted to 0.124 ± 0.045; in the assay on HCM-SANG-0532-C20 (setting [2]), 0.119 ± 0.022.
On to `CC(C)(C)c1nc(-c2cccc(NS(=O)(=O)c3c(F)cccc3F)c2F)c(-c2ccnc(N)n2)s1` [Dabrafenib], for which the activity was determined as 0.138 ± 0.084 in the assay on HCM-SANG-0266-C20 (setting [1]); 0.0841 ± 0.044 in the assay on HCM-SANG-0266-C20 (setting [2]); 0.035 ± 0.012 with HCM-SANG-0270-C20 (setting [1]); 0.0243 ± 0.0073 with HCM-SANG-0270-C20 (setting [2]); 0.0243 ± 0.0054 with HCM-SANG-0291-C15 (setting [1]); 0.0207 ± 0.0019 in the assay on HCM-SANG-0291-C15 (setting [2]). In addition, the activity in the assay on HCM-SANG-0532-C20 (setting [1]) was determined as 0.0306 ± 0.018; in the assay on HCM-SANG-0532-C20 (setting [2]), 0.0604 ± 0.032.
Take `CCN(CC)CCCCNc1ncc2cc(-c3cc(OC)cc(OC)c3)c(NC(=O)NC(C)(C)C)nc2n1`: the activity in the assay with HCM-SANG-0266-C20 (setting [1]) was 0.0628 ± 0.031; with HCM-SANG-0266-C20 (setting [2]), 0.0486 ± 0.023; with HCM-SANG-0270-C20 (setting [1]), 0.0417 ± 0.029; in the assay on HCM-SANG-0270-C20 (setting [2]), 0.0362 ± 0.015; in the assay on HCM-SANG-0291-C15 (setting [1]), 0.0598 ± 0.031; in the assay on HCM-SANG-0291-C15 (setting [2]) it was 0.0496 ± 0.0089. Further, the activity was 0.0936 ± 0.015 in the assay on HCM-SANG-0532-C20 (setting [1]) and 0.0708 ± 0.015 with HCM-SANG-0532-C20 (setting [2]).
`O=C(CCCCCCC(=O)Nc1ccccc1)NO` [Vorinostat]: the activity in the assay on HCM-SANG-0266-C20 (setting [1]) was 0.225 ± 0.032; in the assay with HCM-SANG-0266-C20 (setting [2]), 0.172 ± 0.032; with HCM-SANG-0270-C20 (setting [1]), 0.163 ± 0.017; in the assay with HCM-SANG-0270-C20 (setting [2]), 0.153 ± 0.028; in the assay with HCM-SANG-0291-C15 (setting [1]) it was 0.232 ± 0.021; in the assay with HCM-SANG-0291-C15 (setting [2]), 0.222 ± 0.03. The activity with HCM-SANG-0532-C20 (setting [1]) is 0.132 ± 0.022; in the assay with HCM-SANG-0532-C20 (setting [2]), 0.211 ± 0.034.
As to `CCc1cncnc1N1CCN(Cc2nc3ccc(C(F)(F)F)cc3[nH]2)CC1`, the activity in the assay on HCM-SANG-0266-C20 (setting [1]) turned out to be 0.206 ± 0.033; with HCM-SANG-0266-C20 (setting [2]), 0.155 ± 0.029; in the assay on HCM-SANG-0270-C20 (setting [1]), 0.127 ± 0.026; in the assay on HCM-SANG-0270-C20 (setting [2]) it was 0.162 ± 0.031; with HCM-SANG-0291-C15 (setting [1]), 0.0688 ± 0.038; in the assay on HCM-SANG-0291-C15 (setting [2]), 0.0744 ± 0.019. Further, the activity in the assay with HCM-SANG-0532-C20 (setting [1]) was found to be 0.222 ± 0.04; in the assay with HCM-SANG-0532-C20 (setting [2]), 0.426 ± 0.041.

The record behind these values is the supplement of paper PMC8976852.
